Where no end group is shown, it is not given here.
Assays:
[1] = system: Caco-2 cells; assay: Caco-2 permeability assay (bi-directional); conditions: for Papp Mean / Papp Rep 1 / Papp Rep 2: 120 min, pH 7.4
Experimental: (§1) Cells were seeded on to Millipore Multiscreen Transwell plates at 1×10^5 cells/cm^2. The cells were cultured in DMEM and media was changed every two or three days. On day 20, the permeability study was performed. […] On the day of the assay, the monolayers were prepared by rinsing both basolateral and apical surfaces twice with Hanks Balanced Salt Solution (HBSS) at the desired pH warmed to 37° C. Cells were then incubated with HBSS at the desired pH in both apical and basolateral compartments for 40 min to stabilise physiological parameters.
(§2) The fluorescent integrity marker lucifer yellow was also included in the dosing solution. Analytical standards were prepared from test compound water dilutions and transferred to buffer, maintaining a ≤1% v/v water concentration. Assay buffer was composed of supplemented HBSS pH 7.4.
(§3) For assessment of apical to basolateral (A2B) permeability, HBSS was removed from the apical compartment and replaced with test compound dosing solution. The apical compartment insert was then placed into a companion plate containing fresh buffer (containing ≤1% v/v Water). For assessment of B2A permeability, HBSS was removed from the companion plate and replaced with test compound dosing solution. Fresh buffer (containing ≤1% v/v Water) was added to the apical compartment insert, which was then placed into the companion plate.
(§4) At 120 min, the apical compartment inserts and the companion plates were separated, and apical and basolateral samples diluted for analysis. Test compound permeability was assessed in duplicate. Compounds of known permeability characteristics were run as controls on each assay plate.
(§5) Test and control compounds were quantified by LC-MS/MS cassette analysis using a 7-point calibration with appropriate dilution of the samples. Cyprotex generic analytical conditions were used. The starting concentration (CO) was determined from the dosing solution and the experimental recovery calculated from CO and both apical and basolateral compartment concentrations.
(§6) The integrity of the polarised cell monolayers throughout the experiment was checked by monitoring lucifer yellow permeation using fluorometric analysis. Permeation of this paracellular marker is low if monolayers have not been damaged. […] If this was not the case, then the result from the affected monolayer was excluded.
(§7) The determined concentration (nM≡pmol/mL) of each test sample receiver well is multiplied by the volume of the receiver compartment (apical=0.09 mL, basolateral=0.210 mL) to calculate the amount (pmol) of probe substrate permeating the monolayer.
(§8) Where dQ/dt is the rate of permeation of the drug across the cells, C0 is the donor compartment concentration at time zero and A is the area of the cell monolayer. C0 was obtained from analysis of the dosing solution.
(§9) An efflux ratio (ER) was calculated from mean A to B and B to A data. This is derived from:
(§10) Percentage recovery (mass balance) of the test compound or positive control substrate was calculated by dividing the sum of the amount (pmol) in the receiver and donor compartments post-incubation by the amount in the initial donor solution at time zero (C0) and expressing as a percentage.
(§11) The insert was inserted into the well of a plate to form an Apical chamber (above cells) and basolateral chamber (below cells), with a permeable membrane between the two layers. Compound was then added to either the apical or basolateral chamber and the passage of it monitored into the other chamber. Transfer of the test compound from the apical to basolateral chamber was indicative of cellular uptake, simulating transition of the compound from the intestinal lumen to the bloodstream by uptake receptors (Direction A). […] An Efflux ratio was then calculated from the values obtained for A2B and B2A transmission.

[2] = Caco-2 permeability assay (bi-directional); conditions: human; for recovery at 120 min, 100 μM / recovery at 120 min: Caco-2, pH 7.4, Mean % Recovery; for recovery at 120 min: positive control
Experimental: as §1, §2, §3, §4, §5, §6, §7, §8, §9, §10, §11

[3] = system: Human IPSC-derived cardiomyocytes; assay: Screening synthetic peptides for alterations to human IPSC-derived cardiomyocyte beat rates; format: cell-based; conditions: 2 h; dose not stated in the sentence (no increase at 0.1, 1 and 10 μg/ml)
Experimental: (§12) The baseline beat rate of neonatal rat and human IPSC-derived cardiomyocytes to be treated with the three synthetic fractions were determined by video microscopy of each well in triplicate using a microscope camera. Average beats/min were calculated from the triplicate readings of three separate wells (n=9). Aliquots of each peptide were taken to treat neonatal rat cardiomyocyte cells at doses of 100, 10, 1 and 0.1 μg/ml. Cells were returned to a humidified incubator at 37° C., 5% CO2 for 2 h. After 2 h the beat rate of the treated cardiomyocyte cells was reassessed using the same method used to obtain the pre-dosing beat data. This process was repeated 24 h after the addition of the synthetic peptides.

[4] = known characteristic of control compound; cited from earlier work
[5] = system: Neonatal rat cardiomyocytes; assay: Screening synthetic peptides for alterations to rat cardiomyocyte beat rates; format: cell-based
Experimental: as §12

[6] = system: Neonatal rat cardiomyocytes; assay: Screening synthetic peptides for thermal stability (rat cardiomyocyte beat rate after heating at 100° C.); format: cell-based; conditions: peptide heated to 100° C.
Experimental: Thermal stability of the three designed synthetics peptides was investigated. The baseline beat rate of neonatal rat cardiomyocytes to be treated with the synthetic fractions were determined by video microscopy of each well in triplicate using a microscope camera. Average beats/min were calculated from the triplicate readings of three separate wells (n=9). Aliquots of each peptide were heated in a heat block at 100° C. before being used to treat rodent cardiomyocyte cells at doses of 100, 10, 1 and 0.1 μg/ml. Cells were returned to the incubator at 37° C., 5% CO2 for 2 h. After 2 h the beat rate of the treated cardiomyocyte cells was reassessed using the same method used to obtain the pre-dosing beat data. This process was repeated 24 h after the addition of the synthetic peptides. The data of the fold changes in cardiomyocyte beat rate following treatment with the heated synthetic fractions were compared to previously obtains fold-changes in beat rate of the unheated synthetic peptides to assess their thermal stability.

In the case of LKCHKLVPPVWKT [Synthetic peptide 1], the “toxicity to the Caco-2 cells (lucifer yellow monolayer integrity)” value ([1]; 100 μM) is reported as “not observed”, the “transporter substrate assessment from the efflux ratio” value ([1]; 100 μM, efflux ratio 0.137) is reported as “not a substrate for efflux transporters but could be a possible substrate for uptake transporters” and the “Papp Mean” value ([1]; A2B, 100 μM) is reported as 4.60 ×10^−6 cms^−1. For the same compound, the “Papp Rep 1” value ([1]; A2B, 100 μM) was 6.48 ×10^−6 cms^−1, the “Papp Rep 2” value ([1]; A2B, 100 μM) was 2.73 ×10^−6 cms^−1 and the “Papp Mean” value ([1]; B2A, 100 μM) was 0.633 ×10^−6 cms^−1. The “Papp Rep 1” value ([1]; B2A, 100 μM) was 0.681 ×10^−6 cms^−1, the “Papp Rep 2” value ([1]; B2A, 100 μM) was 0.584 ×10^−6 cms^−1 and the efflux ratio at 120 min, 100 μM ([2]; Caco-2, pH 7.4) was 0.137. For the same compound, the recovery at 120 min, 100 μM ([2]; A2B) was 45.5%, the recovery at 120 min, 100 μM ([2]; B2A) was 96.6% and the “increase to the beat rate of human cardiomyocytes over pre-dosing beat rate” value [3] was 1.5 fold.

In the case of `Cc1cc(=O)n(-c2ccccc2)n1C` [Antipyrine, antipyrine], the “Papp Rep 1” value ([1]; A2B, positive control) is reported as 47.2 ×10^−6 cms^−1, the “Papp Rep 2” value ([1]; A2B, positive control) is reported as 46.9 ×10^−6 cms^−1 and the “Papp Rep 1” value ([1]; B2A, positive control) is reported as 38.0 ×10^−6 cms^−1. For the same compound, the “Papp Rep 2” value ([1]; B2A, positive control) was 41.1 ×10^−6 cms^−1, the Papp A→B at 120 min ([2]; Caco-2, pH 7.4) was 47.1 ×10⁻⁶ cm/s and the Papp B→A at 120 min ([2]; Caco-2, pH 7.4) was 39.6 ×10⁻⁶ cm/s. It also gave an efflux ratio at 120 min ([2]; Caco-2, pH 7.4) of 0.84, a recovery at 120 min ([2]; A2B) of 90.5% and a recovery at 120 min ([2]; B2A) of 87.8%. For the same compound, the human absorption [4] was 97%.

With LKCHKLIPIAWKTK [Synthetic peptide 3] the “fold-increases to beat rate, rat cardiomyocytes” value ([5]; 100 μg/ml, 2 h) was “three-fold”, the “peak increases in rat neonatal cardiomyocyte beat rates” value ([5]; peak over 0.1-100 μg/ml) was 3 fold and the “increases to beat rate, rat cardiomyocytes” value ([5]; three lower tested concentrations, 2 h) was “around two-fold”. For the same compound, the “maximum fold-increase to beat rate following heating” value [6] was 2.5 fold.
